# Tested on: 266295-075-R-J1-PDC spheroid viability
# Test: Anticancer human tumor 266295-075-R-J1-PDC patient-derived head and neck squamous carcinoma cell line growth inhibition [POLQ]
# Conditions: spheroids with HUVEC and MSC; for IC50: curve of first compound; for viability, T/C: stronger effect = lower value
# Outline: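 PDC + HUVEC + MSC complex spheroids; POLQ inhibitors ± partner drugs; top conc. at/near clinical Cmax, else 10 microM (SN-38 1 microM), half-log dilutions; 37 degrees C, 5% CO2.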
# [1] = second compound 0.0316 µM, first compound 0.00316 µM
# [2] = second compound 0.0316 µM, first compound 0.01 µM
# [3] = second compound 0.0316 µM, first compound 0.0316 µM
# [4] = second compound 0.0316 µM, first compound 0.1 µM
# [5] = second compound 0.0316 µM, first compound 0.316 µM
# [6] = second compound 0.0316 µM, first compound 1 µM
# [7] = second compound 0.1 µM, first compound 0.00316 µM
# [8] = second compound 0.1 µM, first compound 0.01 µM
# [9] = second compound 0.1 µM, first compound 0.0316 µM
# [10] = second compound 0.1 µM, first compound 0.1 µM
# [11] = second compound 0.1 µM, first compound 0.316 µM
# [12] = second compound 0.1 µM, first compound 1 µM
# [13] = second compound 0.316 µM, first compound 0.00316 µM
# [14] = second compound 0.316 µM, first compound 0.01 µM
# [15] = second compound 0.316 µM, first compound 0.0316 µM
# [16] = second compound 0.316 µM, first compound 0.1 µM
# [17] = second compound 0.316 µM, first compound 0.316 µM
# [18] = second compound 0.316 µM, first compound 1 µM
# [19] = second compound 1 µM, first compound 0.00316 µM
# [20] = second compound 1 µM, first compound 0.01 µM
# [21] = second compound 1 µM, first compound 0.0316 µM
# [22] = second compound 1 µM, first compound 0.1 µM
# [23] = second compound 1 µM, first compound 0.316 µM
# [24] = second compound 1 µM, first compound 1 µM
# [25] = second compound 3.16 µM, first compound 0.00316 µM
# [26] = second compound 3.16 µM, first compound 0.01 µM
# [27] = second compound 3.16 µM, first compound 0.0316 µM
# [28] = second compound 3.16 µM, first compound 0.1 µM
# [29] = second compound 3.16 µM, first compound 0.316 µM
# [30] = second compound 3.16 µM, first compound 1 µM
# [31] = second compound 10 µM, first compound 0.00316 µM
# [32] = second compound 10 µM, first compound 0.01 µM
# [33] = second compound 10 µM, first compound 0.0316 µM
# [34] = second compound 10 µM, first compound 0.1 µM
# [35] = second compound 10 µM, first compound 0.316 µM
# [36] = second compound 10 µM, first compound 1 µM
# [37] = second compound 0.0316 µM, first compound 3.16 µM
# [38] = second compound 0.0316 µM, first compound 10 µM
# [39] = second compound 0.1 µM, first compound 3.16 µM
# [40] = second compound 0.1 µM, first compound 10 µM
# [41] = second compound 0.316 µM, first compound 3.16 µM
# [42] = second compound 0.316 µM, first compound 10 µM
# [43] = second compound 1 µM, first compound 3.16 µM
# [44] = second compound 1 µM, first compound 10 µM
# [45] = second compound 3.16 µM, first compound 3.16 µM
# [46] = second compound 3.16 µM, first compound 10 µM
# [47] = second compound 10 µM, first compound 3.16 µM
# [48] = second compound 10 µM, first compound 10 µM
# 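Further: spheroids exposed to compounds for seven days before readout.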
compound,measurement,setting,value
C=CCn1c(=O)c2cnc(Nc3ccc(N4CCN(C)CC4)cc3)nc2n1-c1cccc(C(C)(C)O)n1 + Nc1ccc(C#CCN(C(=O)Cc2ncc(C(F)(F)F)cc2C(F)(F)F)c2ccc(F)cc2)nn1,IC50,second compound 0.0316 µM,> 1 µM
same,IC50,second compound 0.1 µM,> 1 µM
same,IC50,second compound 0.316 µM,> 1 µM
same,IC50,second compound 1 µM,> 1 µM
same,IC50,second compound 3.16 µM,> 1 µM
same,IC50,second compound 10 µM,> 1 µM
same,"viability, T/C",[1],102%
same,"viability, T/C",[2],90.4%
same,"viability, T/C",[3],101%
same,"viability, T/C",[4],89.2%
same,"viability, T/C",[5],86.2%
same,"viability, T/C",[6],63.8%
same,"viability, T/C",[7],114%
same,"viability, T/C",[8],95.8%
same,"viability, T/C",[9],88.1%
same,"viability, T/C",[10],125%
same,"viability, T/C",[11],84.1%
same,"viability, T/C",[12],68.8%
same,"viability, T/C",[13],98.7%
same,"viability, T/C",[14],99.1%
same,"viability, T/C",[15],84.1%
same,"viability, T/C",[16],85.2%
same,"viability, T/C",[17],69.3%
same,"viability, T/C",[18],65.3%
same,"viability, T/C",[19],93%
same,"viability, T/C",[20],96.2%
same,"viability, T/C",[21],87.7%
same,"viability, T/C",[22],101%
same,"viability, T/C",[23],81.3%
same,"viability, T/C",[24],54.3%
same,"viability, T/C",[25],102%
same,"viability, T/C",[26],106%
same,"viability, T/C",[27],85.2%
same,"viability, T/C",[28],77.3%
same,"viability, T/C",[29],72.4%
same,"viability, T/C",[30],63.5%
same,"viability, T/C",[31],115%
same,"viability, T/C",[32],90.6%
same,"viability, T/C",[33],91.5%
same,"viability, T/C",[34],109%
same,"viability, T/C",[35],81.2%
same,"viability, T/C",[36],57.3%
CCCS(=O)(=O)Nc1ccc(F)c(C(=O)c2c[nH]c3ncc(-c4ccc(Cl)cc4)cc23)c1F + Nc1ccc(C#CCN(C(=O)Cc2ncc(C(F)(F)F)cc2C(F)(F)F)c2ccc(F)cc2)nn1,IC50,second compound 0.0316 µM,> 10 µM
same,IC50,second compound 0.1 µM,> 10 µM
same,IC50,second compound 0.316 µM,> 10 µM
same,IC50,second compound 1 µM,> 10 µM
same,IC50,second compound 3.16 µM,> 10 µM
same,IC50,second compound 10 µM,> 10 µM
same,"viability, T/C",[3],97.9%
same,"viability, T/C",[4],115%
same,"viability, T/C",[5],115%
same,"viability, T/C",[6],102%
same,"viability, T/C",[37],158%
same,"viability, T/C",[38],160%
same,"viability, T/C",[9],101%
same,"viability, T/C",[10],105%
same,"viability, T/C",[11],99.2%
same,"viability, T/C",[12],116%
same,"viability, T/C",[39],156%
same,"viability, T/C",[40],145%
same,"viability, T/C",[15],102%
same,"viability, T/C",[16],103%
same,"viability, T/C",[17],82.3%
same,"viability, T/C",[18],105%
same,"viability, T/C",[41],143%
same,"viability, T/C",[42],131%
same,"viability, T/C",[21],122%
same,"viability, T/C",[22],92.5%
same,"viability, T/C",[23],115%
same,"viability, T/C",[24],93.8%
same,"viability, T/C",[43],146%
same,"viability, T/C",[44],145%
same,"viability, T/C",[27],84.8%
same,"viability, T/C",[28],135%
same,"viability, T/C",[29],121%
same,"viability, T/C",[30],109%
same,"viability, T/C",[45],142%
same,"viability, T/C",[46],160%
same,"viability, T/C",[33],119%
same,"viability, T/C",[34],104%
same,"viability, T/C",[35],104%
same,"viability, T/C",[36],119%
same,"viability, T/C",[47],143%
same,"viability, T/C",[48],171%
CNCc1ccc(-c2[nH]c3cc(F)cc4c3c2CCNC4=O)cc1 + Nc1ccc(C#CCN(C(=O)Cc2ncc(C(F)(F)F)cc2C(F)(F)F)c2ccc(F)cc2)nn1,IC50,second compound 0.0316 µM,> 10 µM
same,IC50,second compound 0.1 µM,> 10 µM
same,IC50,second compound 0.316 µM,> 10 µM
same,IC50,second compound 1 µM,> 10 µM
same,IC50,second compound 3.16 µM,> 10 µM
same,IC50,second compound 10 µM,> 10 µM
same,"viability, T/C",[3],98.8%
same,"viability, T/C",[4],89.6%
same,"viability, T/C",[5],93.5%
same,"viability, T/C",[6],103%
same,"viability, T/C",[37],101%
same,"viability, T/C",[38],113%
same,"viability, T/C",[9],116%
same,"viability, T/C",[10],97%
same,"viability, T/C",[11],95.6%
same,"viability, T/C",[12],83.2%
same,"viability, T/C",[39],102%
same,"viability, T/C",[40],111%
same,"viability, T/C",[15],102%
same,"viability, T/C",[16],107%
same,"viability, T/C",[17],101%
same,"viability, T/C",[18],87.2%
same,"viability, T/C",[41],98.4%
same,"viability, T/C",[42],70.2%
same,"viability, T/C",[21],93.3%
same,"viability, T/C",[22],86.9%
same,"viability, T/C",[23],123%
same,"viability, T/C",[24],87.2%
same,"viability, T/C",[43],111%
same,"viability, T/C",[44],119%
same,"viability, T/C",[27],88.1%
same,"viability, T/C",[28],97.9%
same,"viability, T/C",[29],81.9%
same,"viability, T/C",[30],97.8%
same,"viability, T/C",[45],100%
same,"viability, T/C",[46],105%
same,"viability, T/C",[33],92.8%
same,"viability, T/C",[34],94.8%
same,"viability, T/C",[35],99.5%
same,"viability, T/C",[36],91%
same,"viability, T/C",[47],87%
same,"viability, T/C",[48],131%
COc1cccc(OCCCN)c1-c1cc(Nc2cnc(C#N)cn2)n[nH]1 + Nc1ccc(C#CCN(C(=O)Cc2ncc(C(F)(F)F)cc2C(F)(F)F)c2ccc(F)cc2)nn1,IC50,second compound 0.0316 µM,> 1 µM
same,IC50,second compound 0.1 µM,> 1 µM
same,IC50,second compound 0.316 µM,> 1 µM
same,IC50,second compound 1 µM,> 1 µM
same,IC50,second compound 3.16 µM,> 1 µM
same,IC50,second compound 10 µM,> 1 µM
same,"viability, T/C",[1],89.6%
same,"viability, T/C",[2],110%
same,"viability, T/C",[3],81.2%
same,"viability, T/C",[4],77.5%
same,"viability, T/C",[5],64.5%
same,"viability, T/C",[6],64.4%
same,"viability, T/C",[7],91.6%
same,"viability, T/C",[8],106%
same,"viability, T/C",[9],84.1%
same,"viability, T/C",[10],69.3%
same,"viability, T/C",[11],72%
same,"viability, T/C",[12],73.5%
same,"viability, T/C",[13],106%
same,"viability, T/C",[14],91.9%
same,"viability, T/C",[15],73.8%
same,"viability, T/C",[16],76.1%
same,"viability, T/C",[17],60.4%
same,"viability, T/C",[18],71.2%
same,"viability, T/C",[19],99.2%
same,"viability, T/C",[20],95.9%
same,"viability, T/C",[21],74.5%
same,"viability, T/C",[22],66.5%
same,"viability, T/C",[23],61.9%
same,"viability, T/C",[24],60.8%
same,"viability, T/C",[25],120%
same,"viability, T/C",[26],101%
same,"viability, T/C",[27],73.2%
same,"viability, T/C",[28],72.8%
same,"viability, T/C",[29],70.2%
same,"viability, T/C",[30],61%
same,"viability, T/C",[31],94.6%
same,"viability, T/C",[32],95%
same,"viability, T/C",[33],87.8%
same,"viability, T/C",[34],67.3%
same,"viability, T/C",[35],62.1%
same,"viability, T/C",[36],68.9%

# Reference: PubChem BioAssay AID1963853 (Molecular Pharmacology Branch, DTP, NCI, 2024)
